Data published in ChEMBL document CHEMBL2157899 (Bioorg Med Chem, 2012).
Non-standard residues stand in square brackets, D forms with d. Residues, ends and D or L forms follow the SMILES beside them. ξ: configuration not given here. ξGly(octyl) = CCCCCCCCC(N)C(=O)O

Key:
[1] = Half life in human Caco2 cell homogenate at 200 uM by LC/MS analysis; type: ADME, Colon; conditions: Caco-2 cell homogenate
[2] = in vitro; conditions: human, Caco-2
Description: Apparent permeability across human Caco2 cells st 200 uM measured over 150 mins by LC/MS analysis

[3] = target: Delta-type opioid receptor (Homo sapiens, UniProt P41143); test: Displacement of [3H]DPDPE from DOP receptor expressed in CHO-K1 cells after overnight incubation by beta counting method; type: cell-based
Delta-type opioid receptor, sequence (P41143 whole entry): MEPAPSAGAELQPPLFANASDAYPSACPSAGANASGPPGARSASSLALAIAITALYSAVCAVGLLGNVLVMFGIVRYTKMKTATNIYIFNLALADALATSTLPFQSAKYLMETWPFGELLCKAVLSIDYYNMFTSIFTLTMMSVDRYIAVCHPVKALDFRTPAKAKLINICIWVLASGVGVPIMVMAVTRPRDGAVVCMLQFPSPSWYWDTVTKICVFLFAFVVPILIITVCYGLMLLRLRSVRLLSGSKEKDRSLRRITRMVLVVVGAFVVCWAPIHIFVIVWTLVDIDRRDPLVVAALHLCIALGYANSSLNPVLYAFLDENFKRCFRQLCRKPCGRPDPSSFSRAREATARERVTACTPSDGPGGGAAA

[4] = target: T1, Mu-type opioid receptor (Homo sapiens, UniProt P35372); test: Displacement of [3H]DAMGO from MOP receptor expressed in CHO-K1 cells after overnight incubation by beta counting method; type: cell-based
T1 sequence (P35372 whole entry): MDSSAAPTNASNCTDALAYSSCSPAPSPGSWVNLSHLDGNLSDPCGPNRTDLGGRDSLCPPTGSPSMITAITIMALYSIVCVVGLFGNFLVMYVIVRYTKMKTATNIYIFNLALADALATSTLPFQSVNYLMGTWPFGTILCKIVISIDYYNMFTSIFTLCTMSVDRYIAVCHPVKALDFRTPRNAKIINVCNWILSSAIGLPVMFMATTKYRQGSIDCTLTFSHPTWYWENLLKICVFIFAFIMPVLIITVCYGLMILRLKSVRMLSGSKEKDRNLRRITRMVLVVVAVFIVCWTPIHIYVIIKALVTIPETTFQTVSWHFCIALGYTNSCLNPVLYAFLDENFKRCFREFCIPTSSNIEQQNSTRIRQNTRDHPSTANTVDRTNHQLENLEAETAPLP

[5] = target: T1, Mu-type opioid receptor; test: Agonist activity at MOP receptor expressed in CHO-K1 cells assessed as inhibition of forskolin-stimulated cAMP accumulation after 30 mins; type: functional, cell-based
[6] = test system: CHO-K1; test: Selectivity ratio of Ki for DOP receptor expressed in CHO-K1 cells to Ki for MOP receptor expressed in CHO-K1 cells; type: cell-based

Compound | half-life at 200 µM [1] | Papp at 2.5 h, 200 µM [2] | Ki [3] | Ki [4] | IC50 [5] | inhibition [5] | Ratio Ki [6]
NC(=O)[C@H](Cc1ccccc1)NC(=O)[C@H](Cc1c[nH]c2ccccc12)NC(=O)[C@@H]1CCCN1C(=O)[C@@H](N)Cc1ccc(O)cc1 [ENDOMORPHIN-1] | 5.6 min | 1.01 ×10⁻⁶ cm/s | – | – | – | – | –
H-YPWFFGLM-NH2 | 15.6 min | 2.04 ×10⁻⁶ cm/s | 1560 nM | 0.73 nM | 12 nM | Dose-dependent effect | 2130
OC[C@@H](O)[C@@H](O)[C@H](O)[C@H](O)CO [MANNITOL] | – | 0.488 ×10⁻⁶ cm/s | – | – | – | – | –
CCCCCCCCC(N)C(=O)N[C@@H](Cc1ccc(O)cc1)C(=O)N1CCC[C@H]1C(=O)N[C@@H](Cc1c[nH]c2ccccc12)C(=O)N[C@@H](Cc1ccccc1)C(=O)NCC(=O)N[C@@H](CC(C)C)C(=O)N[C@@H](CCSC)C(N)=O (stereo partly drawn) (H-[ξGly(octyl)]YPWFGLM-NH2) | 52.5 min | 8.08 ×10⁻⁶ cm/s | 2250 nM | 132 nM | – | – | 17
H-YPWFGLM-NH2 | 10.7 min | 1.41 ×10⁻⁶ cm/s | 1980 nM | 1.6 nM | – | – | 1240
CCCCCCCCC(N)C(=O)N[C@@H](Cc1ccc(O)cc1)C(=O)N1CCC[C@H]1C(=O)N[C@@H](Cc1c[nH]c2ccccc12)C(=O)N[C@@H](Cc1ccccc1)C(=O)N[C@@H](Cc1ccccc1)C(=O)NCC(=O)N[C@@H](CC(C)C)C(=O)N[C@@H](CCSC)C(N)=O (stereo partly drawn) (H-[ξGly(octyl)]YPWFFGLM-NH2) | 75.8 min | 10.2 ×10⁻⁶ cm/s | 1230 nM | 3.87 nM | 45 nM | Dose-dependent effect | 318
CC(C)NCC(O)COc1cccc2ccccc12 (stereo not drawn) [PROPRANOLOL] | – | 30.5 ×10⁻⁶ cm/s | – | – | – | – | –
